# Source: US11591319B2, “Small molecule inducers of autophagy” (Board of Regents, The University of Texas System, priority 2018, dated 2023)
# Legend:
# [1] = system: HeLa cells that overexpress Bcl-2; experiment: CellTiter-Glo cell death in Bcl-2 overexpressing cells; format: cell-based
# [2] = molecular target: BH3 domain of Beclin 1/Bcl-2 (Homo sapiens (Human), UniProt P10415); experiment: Beclin 1 BH3 peptide/Bcl-2 AlphaLISA; format: binding; conditions: AlphaLISA with BH3 peptide
# Excerpt: (§1) To assess selectivity for disruption of binding of the BH3 domain of Beclin 1 to Bcl-2 as compared to that of a pro-apoptotic Bcl-2 family member, we used an AlphaLISA with purified recombinant Bcl-2 and peptides spanning either the BH3 domain (amino acids 105-130) of Beclin 1 or the BH3 domain (amino acids 49-84) of Bax.
# (§2) The Beclin 1 BH3 peptide consists of an N-terminally linked biotin, a YGGGGS linker, and […] (a.a. 105-130) derived from human Beclin 1. Bax BH3 peptide consists of an N-terminally linked biotin, a YGGGGS linker, and 36 amino acids (a.a. 49-84) derived from human Bax. Biotin-6xHis control peptide consists of an N-terminally linked biotin, a YGGGGS linker, and a 6xHis tag at C-terminus.
# (§3) For dose-response AlphaLISA experiments, compounds were serially diluted (2-fold, 7 point) with DMSO and added to BB buffer containing purified recombinant proteins or biotinylated peptides at a final concentration range of 10 μM to 156 nM. Protein or peptide concentrations used in dose-response AlphaLISA experiments were as follows: Beclin1/Bcl-2—300 nM/60 nM; SUMO (internal control for Beclin 1/Bcl-2 AlphaLISA)—20 nM; Beclin 1 BH3/Bcl-2—1000 nM/60 nM; Bax BH3/Bcl-2—100 nM/20 nM; Biotin-6xHis (internal control for BH3/Bcl-2 AlphaLISA)—10
# [3] = molecular target: Bim/Myc-Bcl-2 interaction (Homo sapiens (Human), UniProt P10415); experiment: Co-immunoprecipitation of Bim with Myc-Bcl-2 in HeLa cells; format: cell-based; conditions: 12 h treatment
# Bim/Myc-Bcl-2 interaction, sequence (P10415 whole entry): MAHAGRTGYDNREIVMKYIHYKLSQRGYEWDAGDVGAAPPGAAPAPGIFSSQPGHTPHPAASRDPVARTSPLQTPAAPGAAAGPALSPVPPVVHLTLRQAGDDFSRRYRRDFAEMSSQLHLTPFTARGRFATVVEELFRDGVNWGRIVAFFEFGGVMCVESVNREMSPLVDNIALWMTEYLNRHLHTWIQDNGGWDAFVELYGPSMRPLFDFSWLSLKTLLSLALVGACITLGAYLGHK
# Excerpt: For the two compounds for which we had sufficient supply for large-scale tissue culture experiments (SW063058 and SW076956), we examined their effects on Beclin 1, Bax, and Bim co-immunoprecipitation with Bcl-2.
# [4] = molecular target: T1, Beclin 1/Bcl-2 interaction (Homo sapiens (Human), UniProt P10415); experiment: Beclin 1/Bcl-2 split-luciferase assay in HeLa cells; format: cell-based
# Target sequence in this assay (P10415 whole entry): as above
# Excerpt: The split-luciferase approach relies on the reconstitution of two fragments of firefly luciferase, NLuc (amino acids 2-416) and CLuc (amino acids 398-550) expressed with proteins of interest as fusion partners. Upon the binding of interacting partners, two non-functional fragments of the luciferase are brought into proximity, forming an active luciferase protein. To measure Beclin 1/Bcl-2 interaction with the split-luciferase assay, we created HeLa cell lines expressing N-terminal NLuc-tagged Beclin 1 (NLuc-Beclin 1) and CLuc-tagged Bcl-2 (CLuc-Bcl-2) as split-luciferase reporters. […] Renilla luciferase was constitutively expressed as an internal control. The interaction of Beclin 1/Bcl-2 was measured as relative luminescence units (RLU), which was the calculated ratio of split-luciferase and Renilla luciferase signals: […]
# DMSO (neutral control), ABT-737 (positive control), or the library compounds were added to a final concentration of 5 μM and incubated at 37° C. […] After 5 h of incubation, the medium was removed by centrifugation and the activity of Beclin 1/Bcl-2 split-luciferase reporters was measured with Dual-Glo® Luciferase Assay System (Promega). […] Ten microliters of 1× RL buffer (Stop & Glo Reagent) was then added to the sample, the sample was incubated at room temperature for 10 min, and the activity of Renilla luciferase was measured again. […]
# HeLa cells [5] = experiment: p62 levels after Beclin 1 or Bcl-2 siRNA knockdown; format: cell-based; conditions: cells with either Beclin 1 or Bcl-2 knockdown
# Excerpt: (§4) We assessed whether the induction of autophagy by SW063058 and SW076956 requires Beclin 1 and Bcl-2 using siRNA to knockdown each protein, respectively, in HeLa, cells.
# [6] = molecular target: T1, Beclin 1/Bcl-2 interaction; experiment: Beclin 1/Bcl-2 AlphaLISA assay (dose-response); format: binding; conditions: positive control
# Excerpt: We also developed a high-throughput Beclin 1/Bcl-2 AlphaLISA assay to directly measure the in vitro interaction between Beclin 1 and Bcl-2. AlphaLISA is a bead-based proximity assay that is capable of measuring protein-protein interaction in homogeneous solution.^41 Oxygen singlet molecules are generated by Alpha donor beads upon irradiation at 680 nm and travel to acceptor beads in proximity. […] Thus, a measurable Alpha luminescence signal requires chemical energy transfer between the donor and acceptor beads, and a pair of interacting molecules immobilized on the beads stabilizes bead association to produce measurable Alpha signals.
# We used purified recombinant Beclin 1 and Bcl-2 proteins for AlphaLISA, which were optimized for enhanced solubility and expression. Human Beclin 1 was expressed as a fusion protein with StrepII-SUMO at the N-terminus, and three residues on the aromatic finger of Beclin 1 were mutated (F359D/F360D/W361D) to improve solubility and protein stability.^42 These mutations are in the BARA domain, which is far from the BH3 motif recognized by Bcl-2. A recombinant Bcl-2-binding deficient mutant of Beclin 1 (StrepII-SUMO-Beclin 1^ΔBcl-2BD) was used as a negative control. […] For a normalization control, we included a parallel AlphaLISA assay with purified SUMO protein (with an N-terminal StrepII tag and a C-terminal 6xHis tag). The purpose of a normalization control is to eliminate inner filter (false-positive) hits that reduce luminescence signal by interfering with the AlphaLISA assay in ways that are unrelated to the Beclin 1/Bcl-2 interaction. With the normalization control, the interaction of Beclin 1 and Bcl-2 was measured as follows:
# All AlphaLISA assays were performed in triplicate in a 384-well format with BB buffer (phosphate-buffered saline supplemented with 0.5% BSA and 1 mM DTT). For the Beclin 1/Bcl-2 AlphaLISA, purified StrepII-SUMO-Beclin 1 was incubated with Bcl-2-6xHis proteins at 300 nM and 60 nM, respectively. For internal control AlphaLISA assays, StrepII-SUMO-6xHis protein (internal control) was used at 20 nM. […] Following the initial incubation, Strep-Tactin Alpha donor (AS106D) and anti-6xHis AlphaLISA acceptor beads (AL128M) were added to a final concentration of 40 μg/mL each and incubated at room temperature in the dark for an additional 1 h. All samples were evaluated in triplicate. Alpha signals were measured by an Envision plate reader (Perkin Elmer). Beclin 1/Bcl-2 Alpha signal was normalized with internal control Alpha signal. The normalized value represents the binding activity of Beclin 1 and Bcl-2. The percent activity of a compound was calculated as the following formula: […]
# Protein or peptide concentrations used in dose-response AlphaLISA experiments were as follows: Beclin1/Bcl-2—300 nM/60 nM; SUMO (internal control for Beclin 1/Bcl-2 AlphaLISA)—20 nM; Beclin 1 BH3/Bcl-2—1000 nM/60 nM; Bax BH3/Bcl-2—100 nM/20 nM; Biotin-6xHis (internal control for BH3/Bcl-2 AlphaLISA)—10
# Target sequence in this assay (P10415 1-218): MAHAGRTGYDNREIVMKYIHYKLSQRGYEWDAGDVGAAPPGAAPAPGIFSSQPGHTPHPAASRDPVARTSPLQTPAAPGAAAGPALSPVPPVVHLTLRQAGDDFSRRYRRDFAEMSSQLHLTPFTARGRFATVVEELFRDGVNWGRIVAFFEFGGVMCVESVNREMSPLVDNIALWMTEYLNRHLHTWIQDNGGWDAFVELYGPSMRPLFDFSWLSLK
# PARP = PARP cleavage (apoptosis); format: cell-based; conditions: 10 or 20 μM
# [7] = system: HeLa cells stably expressing GFP-LC3; experiment: GFP-LC3 puncta quantitation (autophagy); format: cell-based
# Method: We used well-established assays to assess their autophagic activity,^45 including (i) quantitation of GFP-LC3 puncta (which label autophagosomes) in the presence and absence of the lysosomal inhibitor, bafilomycin A1 (Baf A1), and (ii) western blot analysis of the conversion of LC3-I to the lipidated, autophagosomal-associated protein, LC3-II in the presence and absence of Baf A1. […] Shorter durations of lower concentrations of compounds (10 μM) also produced similar results. […] Thus, these compounds induce autophagic flux in HeLa cells.
# as §4
# HeLa cells [8] = experiment: CellTiter-Glo cytotoxicity assay; format: cell-based; conditions: 20 μM
# BH3 domain of Bax/Bcl-2 = BH3 domain of Bax/Bcl-2 (Homo sapiens (Human), UniProt P10415); experiment: Bax BH3 peptide/Bcl-2 AlphaLISA; format: binding; conditions: AlphaLISA with BH3 peptide
# BH3 domain of Bax/Bcl-2, sequence (P10415 1-218): as above
# Excerpt: as §1, §2, §3
# BH3 domain of Beclin 1/Bcl-2, sequence (P10415 1-218): as above
structure (smiles),measurement,setting,value
CN(C)CC[C@H](CSc1ccccc1)Nc1ccc(S(=O)(=O)NC(=O)c2ccc(N3CCN(Cc4ccccc4-c4ccc(Cl)cc4)CC3)cc2)cc1[N+](=O)[O-] [ABT-737],cell death in HeLa cells that overexpress Bcl-2,[1],more pronounced dose-dependent increase in cell death
same,binding of the BH3 domain of Beclin 1 to Bcl-2,[2],nanomolar efficiency
same,Bim/Myc-Bcl-2 interaction (co-immunoprecipitation),[3],disrupt co-immunoprecipitation
same,split-luciferase luminescence activity,[4],inhibited in a dose-dependent manner
same,p62 levels,HeLa cells [5],failed to alter p62 levels
same,inhibition of Beclin 1/Bcl-2 Alpha signal,[6],inhibited in a dose-dependent manner
same,PARP cleavage,PARP,dose-dependent increase in PARP cleavage
same,GFP-LC3 puncta in Bcl-2 knockdown cells,[7]; Bcl-2 siRNA,no further increase in GFP-LC3 puncta
same,GFP-LC3 puncta in Beclin 1 knockdown cells,[7]; Beclin 1 siRNA,no further increase in GFP-LC3 puncta
same,cytotoxicity (CellTiter-Glo),HeLa cells [8],mild cytotoxicity
same,binding of the BH3 domain of Bax to Bcl-2,BH3 domain of Bax/Bcl-2,nanomolar efficiency
